# Test results published in patent publication US9895370B2, “Pharmaceutical composition for preventing or treating of cirrhosis of liver comprising G protein coupled receptor 119 ligand as an active ingredient” (DONGGUK UNIVERSITY INDUSTRY—ACADEMIC COOPERATION FOUNDATION, priority 2015, dated 2018).
# System: Smad3 and p300
# Experiment: Smad3-p300 interaction, Smad3 acetylation and AMPK-p300 binding in LX-2 (immunoprecipitation)
# Assay type: cell-based, human
# Procedure: A human HSC line (LX-2, Milipore, U.S.A.) was plated in a 6-well plate, and grown to confluency in DMEM supplemented with 1% penicillin-streptomycin (Hyclone, U.S.A.) and 2% fetal bovine serum (Hyclone, U.S.A.) at 37° C. in a 5% CO2 incubator. For a further experiment, the confluent HSC line was incubated in an FBS-free medium, instead of the 2% FBS-added medium.
# Total fraction protein was reacted with corresponding antibodies at 4° C. for 12 hours or more. An antigen-antibody conjugate was reacted with protein G-agarose at 4° C. for 2 hours to precipitate, and then reacted with 2× Laemmli buffer. The extracted protein was observed by an immunochemical method.
# According to existing reports, AMPK activation in HSCs inhibits the interaction between Smad3 and p300 and inhibits the expression of a liver fibrosis-inducing factor through elevation of proteasomal degradation of the transcriptional coactivator p300. Thus, the influence of the GPR119 ligand on the interaction between Smad2/Smad3 and p300 was examined.
# Subsequently, in the present invention, a mechanism for inhibiting the Smad-p300 interaction due to AMPK activation was investigated.
compound,measurement,setting,value
"CCc1cnc(N2CCC(c3nc(COc4ccc(-n5cnnn5)cc4)cs3)CC2)nc1 [MBX-2982, 4-((4-(1H-tetrazol-1-yl)phenoxy)methyl)-2-(1-(5-ethylpyrimidin-2-yl)piperidin-4-yl)thiazole]",Smad3 acetylation elevated by TGFβ1,"LX-2, FIG. 4e",considerably inhibited
same,interaction between Smad3 and p300 elevated by TGFβ1,"LX-2, FIG. 4e",considerably inhibited
same,binding of activated AMPK to p300,"LX-2 treated with ligand alone, FIG. 4g",directly bound to p300
